Measured values reported in patent US20060223837A1 (priority 2005, published 2006).

Biological target: T1, human VR1 (Homo sapiens, UniProt Q8NER1)
T1 construct: expressed in transfected cells; host or cells: HEK293
Assay: Human VR1 functional assay (FLIPR intracellular Ca2+)
Format: cell-based
Details: for IC50: antagonism of capsaicin-induced Ca2+ increase, read-out: h IC50; for inhibition at 1 µM: read-out: h % I (1 μM); for inhibition at 5 µM: read-out: h % I (5 μM)
Protocol: The functional activity of the test compounds was determined by measuring changes in intracellular calcium concentration using a Ca^2+-sensitive fluorescent dye and FLIPR™ technology. Increases in Ca^2+ concentration were readily detected upon challenge with capsaicin. HEK293 Cells expressing human VR1 were grown on poly-D-lysine coated 384 well black-walled plates (BD 354663) and 1 day later loaded with Calcium 3 Dye for 35 min at 37 C, 5% CO2 and then for 25 min at room temperature, and subsequently tested for agonist-induced increases in intracellular Ca^2+ levels using FLIPR™ technology. Cells were challenged with test compounds (at varying concentrations, which are indicated in parentheses in the heading of the table below) and intracellular Ca^2+ was measured for 5 min prior to the addition of capsaicin to all wells to achieve a final concentration of eliciting an approximate 80% maximal response ([…]). EC50 or IC50 values were determined from dose-response studies. Curves were generated using the average of quadruplicate wells for each data point.

[1] = inhibition of capsaicin response
[2] = inhibition of capsaicin response, 5 μM

T1 sequence (Q8NER1 whole entry): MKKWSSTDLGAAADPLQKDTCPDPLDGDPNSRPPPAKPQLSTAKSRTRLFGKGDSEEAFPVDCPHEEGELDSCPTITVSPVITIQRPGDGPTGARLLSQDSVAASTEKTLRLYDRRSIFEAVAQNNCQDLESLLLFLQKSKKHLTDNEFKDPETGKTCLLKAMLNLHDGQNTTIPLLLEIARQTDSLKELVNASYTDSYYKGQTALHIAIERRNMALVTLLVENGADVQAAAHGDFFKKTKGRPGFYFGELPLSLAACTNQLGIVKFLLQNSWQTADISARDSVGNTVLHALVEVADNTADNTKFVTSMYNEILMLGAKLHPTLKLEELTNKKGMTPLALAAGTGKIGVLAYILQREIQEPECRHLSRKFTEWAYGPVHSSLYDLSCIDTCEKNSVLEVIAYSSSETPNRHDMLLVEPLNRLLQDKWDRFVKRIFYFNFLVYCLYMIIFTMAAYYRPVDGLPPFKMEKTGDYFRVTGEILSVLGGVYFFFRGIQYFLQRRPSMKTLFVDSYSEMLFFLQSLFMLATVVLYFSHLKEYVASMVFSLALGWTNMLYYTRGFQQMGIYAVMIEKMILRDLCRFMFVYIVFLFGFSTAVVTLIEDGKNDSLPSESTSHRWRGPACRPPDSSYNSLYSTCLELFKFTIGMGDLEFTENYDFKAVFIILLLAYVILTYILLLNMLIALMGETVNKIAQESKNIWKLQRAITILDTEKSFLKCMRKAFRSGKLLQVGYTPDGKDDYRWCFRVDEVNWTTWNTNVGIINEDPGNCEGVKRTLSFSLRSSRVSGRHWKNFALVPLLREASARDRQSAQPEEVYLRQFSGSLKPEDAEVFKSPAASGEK

Compound | inhibition at 1 µM [1] [%] | h % I (1 μM) [1] [%] | also measured
O=C(CCc1ccc(C(F)(F)F)cc1)Nc1ccc(-n2cnc(C(F)(F)F)c2)c(C(F)(F)F)c1 [Cpd 238, 3-(4-Trifluoromethyl-phenyl)-N-[3-trifluoromethyl-4-(4-trifluoromethyl-imidazol-1-yl)-phenyl]-propionamide] | 100 |  | IC50: 340 nM
O=C(CCc1ccc(SC(F)(F)F)cc1)Nc1ccc(-n2cnc(Cl)c2Cl)c(C(F)(F)F)c1 [Cpd 239] | 88 |  | IC50: 358 nM
O=C(CCc1ccc(F)cc1)Nc1ccc(-n2cnc(Cl)c2Cl)c(C(F)(F)F)c1 [Cpd 243] | 92 |  | IC50: 440 nM
O=C(CCc1ccc([S+]([O-])C(F)(F)F)cc1)Nc1ccc(-n2cnc(Cl)c2Cl)c(C(F)(F)F)c1 (centres unmarked) [Cpd 244] | 85 |  | IC50: 452 nM
Cc1cc(NC(=O)CCc2ccc(C(F)(F)F)cc2)cnc1-n1ccnc1 [Cpd 247] |  |  | IC50: 549 nM; inhibition at 5 µM [2]: 97%
O=C(CCc1ccc(C(F)(F)F)cn1)Nc1ccc(-n2cnc(Cl)c2Cl)c(C(F)(F)F)c1 [Cpd 248] | 83 |  | IC50: 602 nM
O=C(CCc1ccc(C(F)(F)F)cc1)Nc1cnc(-c2cccnc2)c(C(F)(F)F)c1 [Cpd 249] |  |  | IC50: 613 nM; inhibition at 5 µM [2]: 100%
O=C(CCc1ccc(F)c(F)c1)Nc1ccc(-n2ccnc2)c(C(F)(F)F)c1 [Cpd 256] | 42 |  | 
Cc1cc(NC(=O)CCc2ccc(F)c(F)c2)cnc1-n1cnc(Cl)c1Cl [Cpd 257] | 41 |  | 
COc1cccc(-c2ncc(NC(=O)CCc3ccc(C(C)(C)C)cc3)cc2C)c1 [Cpd 259] |  |  | inhibition at 5 µM [2]: 90%
CC(C)(C)c1ccc(CCC(=O)Nc2ccc(-n3ccnc3)c(C(F)(F)F)c2)cc1 [Cpd 264] |  | 24 | h % I (5 μM) [2]: 48%
O=C(CCc1ccc(C(F)(F)F)cc1)Nc1ccc(-c2noc(C(F)(F)F)n2)c(C(F)(F)F)c1 [Cpd 265, 3-(4-Trifluoromethyl-phenyl)-N-[3-trifluoromethyl-4-(5-trifluoromethyl-[1,2,4]oxadiazol-3-yl)-phenyl]-propionamide] | 18 |  | inhibition at 5 µM [2]: 63%
Cc1nc(-c2ccc(NC(=O)CCc3ccc(C(F)(F)F)cc3)cc2C(F)(F)F)no1 [Cpd 266, N-[4-(5-Methyl-[1,2,4]oxadiazol-3-yl)-3-trifluoromethyl-phenyl]-3-(4-trifluoromethyl-phenyl)-propionamide] | 47 |  | inhibition at 5 µM [2]: 64%
Cc1nccn1-c1ccc(NC(=O)CCc2ccc(C(F)(F)F)cc2)cc1C(F)(F)F [Cpd 267] |  | 20 | 
CC(C)c1nccn1-c1ccc(NC(=O)CCc2ccc(C(F)(F)F)cc2)cc1C(F)(F)F [Cpd 268] |  | 15 | 
O=C(CCc1ccc(C(F)(F)F)cc1)Nc1ccc(-n2ccc3ccccc32)c(C(F)(F)F)c1 [Cpd 269] |  | 21 | 
O=C(CCc1ccc(C(F)(F)F)cc1)Nc1ccc(-n2cnc3c2CCCC3)c(C(F)(F)F)c1 [Cpd 270, N-[4-(4,5,6,7-Tetrahydro-benzoimidazol-1-yl)-3-trifluoromethyl-phenyl]-3-(4-trifluoromethyl-phenyl)-propionamide] | 47 |  | 
COC(=O)c1cn(-c2ccc(NC(=O)CCc3ccc(C(F)(F)F)cc3)cc2C(F)(F)F)cn1 [Cpd 271] |  | 26 | 
Cc1cc(NC(=O)CCc2ccc([S+]([O-])C(F)(F)F)cc2)cnc1-n1cnc(Cl)c1Cl (centres unmarked) [Cpd 273] |  | 36 | 
Cc1cc(NC(=O)/C=C/c2ccc([S+]([O-])C(F)(F)F)cc2)cnc1-n1cnc(Cl)c1Cl (centres unmarked) [Cpd 274] |  | 18 | 
Cc1cc(NC(=O)/C=C/c2ccc(SC(F)(F)F)cc2)cnc1-n1cnc(Cl)c1Cl [Cpd 275] |  | 16 | 
Cc1cc(NC(=O)/C=C/c2ccc(C(F)(F)F)cn2)cnc1-n1cnc(Cl)c1Cl [Cpd 276] |  | 19 | 
Cc1cc(NC(=O)CCc2ccc(C(F)(F)F)cn2)cnc1-n1cnc(Cl)c1Cl [Cpd 278] |  | 36 | 
O=C(CCc1ccc(F)cc1)Nc1ccc(-n2ccnc2)c(C(F)(F)F)c1 [Cpd 279] |  | 30 | 
Cc1cc(NC(=O)CCc2ccc(F)cc2)cnc1-n1cnc(Cl)c1Cl [Cpd 280] |  | 16 | 
